This is an account of results in US9388389B2, “JFH-1 based HCV cell culture systems for NS5A of genotypes 1-7” (Hvidovre Hospital, priority 2009, dated 2016).

Like-named read-outs stand apart in the source and are kept apart here.

Assay type in all cases: cell-based
Test [1] has as its system HCV NS5A genotype 1-7 recombinants. Nature of the test: BMS-790052 treatment of infected cultures, high-throughput assay. The following applies: Hepatitis C virus, most isolates. As for the experimental part:
(§1) 5×10^3 naïve Huh7.5 cells were plated per well in a poly-D-lysine coated 96-well plate (Nunc, Roskilde, D K) one day before infection with different recombinant viruses. Infectious doses were chosen to aim at 400-1000 single infected cells in non-treated wells at the end of the experiment. J6/JFH1 was included with two infectious doses (high and low) to control for impact of dose variability. The infectious dose of other recombinants was in the range between. […] On day three cells were fixed and immunostained for NS3 expression as described above. In parallel, cell viability was monitored with CellTiter™ 96 AQueous One Solution Cell Proliferation Assay (Promega, Madison, Wis. USA). The number of single infected cells was determined by automated counting of individual wells as described above.
(§2) To improve HCV treatment, much attention has been drawn to development of specific small molecule HCV inhibitors, including inhibitors of NS5A. Using the NS5A genotype recombinants, we investigated sensitivity to the NS5A inhibitor most advanced in clinical trials, BMS-790052. Treatment experiments using the specific NS5A inhibitor BMS-790052 (synthesized by Acme Bioscience, Palo Alto, Calif., USA) were conducted similar to what was described for interferon-alpha.

A further test deals with DH6(1a) NS5A recombinant. The test is described as follows: BMS-790052 treatment of infected cultures. The following applies: Hepatitis C virus; genotype 1a, isolate DH6 NS5A recombinant; read-out: NS5A inhibitor, EC50 (nM), original. On the procedure:
as §1, §2

Test [2] concerns ED43(4a) NS5A recombinant. Nature of the test: BMS-790052 treatment of infected cultures. The following applies: Hepatitis C virus, read-out: NS5A inhibitor, EC50 (nM), original. As for the experimental part: as §1, §2
In test [3] the test system is H77C(1a) NS5A recombinant. The test is described as follows: BMS-790052 treatment of infected cultures. To be noted: Hepatitis C virus; genotype 1a, isolate H77C NS5A recombinant; read-out: NS5A inhibitor, EC50 (nM), original. As for the experimental part:
as §1, §2

Test [4] has as its system HCV-1(1a) NS5A recombinant. The test is described as follows: BMS-790052 treatment of infected cultures. To be noted: Hepatitis C virus; genotype 1a, isolate HCV-1 NS5A recombinant; read-out: NS5A inhibitor, EC50 (nM), original. As for the experimental part:
as §1, §2

The subject of test [5] is HK6a(6a) NS5A recombinant. The test is described as follows: BMS-790052 treatment of infected cultures. The following applies: Hepatitis C virus; genotype 6a, isolate HK6a NS5A recombinant; read-out: NS5A inhibitor, EC50 (nM), original. As for the experimental part:
as §1, §2

The next test has as its system J1(1a) NS5A recombinant. The test is described as follows: BMS-790052 treatment of infected cultures. The following applies: Hepatitis C virus. On the procedure: as §1, §2
Another test deals with J4(1b) NS5A recombinant. The test is described as follows: BMS-790052 treatment of infected cultures. To be noted: Hepatitis C virus. On the procedure:
as §1, §2

Another test has as its system J6(2a) NS5A recombinant. Nature of the test: BMS-790052 treatment of infected cultures. To be noted: Hepatitis C virus. As for the experimental part:
as §1, §2

A further test concerns JFH1(2a) NS5A (J6/JFH1). Nature of the test: BMS-790052 treatment of infected cultures. To be noted: Hepatitis C virus; genotype 2a, isolate JFH1 NS5A (J6/JFH1); read-out: NS5A inhibitor, EC50 (nM), original. As for the experimental part:
as §1, §2

The test system of test [6] is QC69(7a) NS5A recombinant. Nature of the test: BMS-790052 treatment of infected cultures. The following applies: Hepatitis C virus; genotype 7a, isolate QC69 NS5A recombinant; read-out: NS5A inhibitor, EC50 (nM), original. As for the experimental part: as §1, §2
For the next test, the system named is S52(3a) NS5A recombinant. Nature of the test: BMS-790052 treatment of infected cultures. The following applies: Hepatitis C virus. As for the experimental part:
as §1, §2

The test system of test [7] is SA13(5a) NS5A recombinant. Nature of the test: BMS-790052 treatment of infected cultures. To be noted: Hepatitis C virus; genotype 5a, isolate SA13 NS5A recombinant; read-out: NS5A inhibitor, EC50 (nM), original. On the procedure: as §1, §2
A further test has as its system TN(1a) NS5A recombinant. Nature of the test: BMS-790052 treatment of infected cultures. To be noted: Hepatitis C virus; genotype 1a, isolate TN NS5A recombinant; read-out: NS5A inhibitor, EC50 (nM), original. As for the experimental part: as §1, §2

For `COC(=O)N[C@H](C(=O)N1CCC[C@H]1c1nc(-c2ccc(-c3ccc(-c4c[nH]c([C@@H]5CCCN5C(=O)[C@@H](NC(=O)OC)C(C)C)n4)cc3)cc2)c[nH]1)C(C)C` [BMS-790052], the EC50 in test [1] was under 0.1 nM; with DH6(1a) NS5A recombinant, 0.065 nM; in test [2] it was 0.017 nM; in [3], 0.026 nM; in test [4], 0.12 nM; in test [5] it was 0.031 nM. Further, the half-maximal effective concentration (EC50) in the test on J1(1a) NS5A recombinant (J1(1a), read-out: EC50) was determined as 1.1 nM; in the test with J1(1a) NS5A recombinant (genotype 1a, isolate J1 NS5A recombinant, read-out: NS5A inhibitor, EC50 (nM), original), 1.1 nM; with J4(1b) NS5A recombinant (J4(1b), most sensitive, read-out: EC50), 0.009 nM; in the test with J4(1b) NS5A recombinant (genotype 1b, isolate J4 NS5A recombinant, read-out: NS5A inhibitor, EC50 (nM), original), 0.009 nM; with J6(2a) NS5A recombinant (J6(2a), read-out: EC50) it was 14 nM; with J6(2a) NS5A recombinant (genotype 2a, isolate J6 NS5A recombinant, read-out: NS5A inhibitor, EC50 (nM), original) it was 14 nM. Moreover, the concentration for a half-maximal effect (EC50) in the test with JFH1(2a) NS5A (J6/JFH1) was 0.097 nM; in test [6], 0.05 nM; with S52(3a) NS5A recombinant (S52(3a), read-out: EC50) it was 0.9 nM; with S52(3a) NS5A recombinant (genotype 3a, isolate S52 NS5A recombinant, read-out: NS5A inhibitor, EC50 (nM), original), 0.9 nM; in test [7], 0.034 nM; in the test with TN(1a) NS5A recombinant, 0.038 nM.
